Data on two compounds can be found in patent publication US7321027B2, “Small technetium-99m and rhenium labeled agents and methods for imaging tumors” (President and Fellows of Harvard College, priority 2000, dated 2008).

The test system of data set [1] is B16/F0 murine melanoma cells. Put plainly: In-vitro tumor-cell uptake, melanoma cells. Format: cell-based. The following applies: 37° C., B16/F0 cell line. In outline: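 5×10^6 cells in S-MEM were incubated with 1–2 μCi of ^99mTc-complex with intermittent agitation; B16/F0 uptake was run at both 37 °C and 4 °C. At set times, samples were spun through cold FBS and pellet and supernatant were γ-counted. % uptake = cpm(pellet)/[cpm(pellet)+cpm(supernatant)]×100.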

Data set [2] can be described thus: Determination of lipophilicity and pKa values by HPLC. The format is physicochemical. The following applies: HPLC method. As for the experimental part: The physicochemical parameters of the rhenium complexes, i.e. lipophilicity log P, log D(pH 7.4), and pKa (Table 2) were determined using HPLC methods (Braumann, T.; Grimme, L. H. Determination of Hydrophobic Parameters for Pyridazinone Herbicides by Liquid-Liquid Partition and Reversed-Phase High-Performance Liquid Chromatography. J. Chromatogr. 1981, 206, 7-15; Stytli, C.; Theobald, A. E. Determination of Ionization Constants of Radiopharmaceuticals in Mixed Solvents by HPLC. Appl. Radiat. Isot., 1987, 38, 701-708; Johannsen, B.; Scheunemann, M.; Spies, H.; Brust, P.; Wober, J.; Syhre, R.; Pietzsch, H.-J. Technetium(V) and Rhenium(V) Complexes for 5-HT2A Serotonin Receptor Binding: Structure-Affinity Considerations. Nucl. Med. Biol., 1996, 23, 429-438; and Johannsen, B.; Berger, R.; Brust, P.; Pietzsch, H.-J; Scheunemann, M.; Seifert, S.; Spies, H.; Syhre, R. Structural Modification of Receptor-Binding Technetium-99m Complexes in Order to Improve Brain Uptake. Eur. J. Nucl. Med. 1997, 24, 316-319). […] Since log D(pH 7.4) is a composite measure of log P and pKa, the log D(PH 7.4) of Re-Compound B (1.9) is also higher than that of Re-Compound A (1.1). […] With pKa values >9 for complexes Re-Compound C and Re-Compound D, the resulting low log D(PH 7.4) values of −0.5 (Re-Compound C) and 0.7 (Re-Compound D) are not surprising, since the complexes would exist in a protonated form at pH 7.4.
Determination of Lipophilicity and pKa Values. The lipophilicity and pKa values of all complexes were determined using HPLC methods described previously (Stylli, C.; Theobald, A. E. Determination of Ionization Constants of 4 Radiopharmaceuticals in Mixed Solvents by HPLC. Appl. Radiat. Isot., 1987, 38, 701-708; Johannsen, B.; Scheunemann, M.; Spies, H.; Brust, P.; Wober, J.; Syhre, R.; Pietzsch, H.-J. Technetium(V) and Rhenium(V) Complexes for 5-HT2A Serotonin Receptor Binding: Structure-Affinity Considerations. Nucl. Med. Biol., 1996, 23, 429-438; and Johannsen, B.; Berger, R.; Brust, P.; Pietzsch, H.-J.; Scheunemann, M.; Seifert, S.; Spies, H.; Syhre, R. Structural Modification of Receptor-Binding Technetium-99m Complexes in Order to Improve Brain Uptake. Eur. J. Nucl. Med. 1997, 24, 316-319). […] The mobile phase was acetonitrile:phosphate buffer (0.01 M), 3:1, v/v, with the aqueous buffer adjusted to the desired pH between 3 and 11. The capacity factor (k′) was calculated for each determination (Braumann, T.; Grimme, L. H. Determination of Hydrophobic Parameters for Pyridazinone Herbicides by Liquid-Liquid Partition and Reversed-Phase High-Performance Liquid Chromatography. J. Chromatogr. 1981, 206, 7-15; El Tayer, N.; van der Waterbeemd, H.; Testa, B. Lipophilicity Measurements of Protonated Basic Compounds by Reversed-Phase High-Performance Liquid Chromatography. II. Procedure for the Determination of a Lipophilic Index Measured by Reversed-Phase High Performance Liquid Chromatography. J. Chromatogr. 1985, 320, 305-312; and Minick, D. J.; Frenz, J. H.; Patrick, M. A.; Brent, D. A. A Comprehensive Method for Determining Hydrophobicity Constants by Reversed-Phase High-Performance Liquid Chromatography. J. Med. Chem., 1988, 31, 1923-1933) and the partition coefficient at a given pH (D or log D) were calculated from the equation: log D=a log k′+b where the parameters a and b are predetermined using standard amines. The fitted points of inflection from the sigmoidal DHPLC/pH profiles permit calculation of the pKHPLC(Stylli, C.; Theobald, A. E. Determination of Ionization Constants of Radiopharmaceuticals in Mixed Solvents by HPLC. Appl. Radiat. Isot., 1987, 38, 701-708). The aqueous ionization constants pKa were calculated from the pKHPLC values after correction with a predetermined correction factor obtained using standard amine compounds. Log P values of the neutral complexes were estimated from the respective upper plateau of the sigmoidal log D/pH curve in the alkaline range.

Regarding `CCN(CC)CCN1CC[S][99Tc]2(=[O])[S]CC[N]2C(=O)C1` (stereo not shown) [Tc-(Compound A)], the maximal cell uptake in data set [1] was determined as 43%. Further, in data set [2], the pKa (usually the pH at which an ionisable group is half protonated) came to 7.7 and the “log D(pH 7.4)” value is recorded as “≈ 1”.
The compound `CCCCN(CCCC)CCN1CC[S][99Tc]2(=[O])[S]CC[N]2C(=O)C1` (stereo not shown) [Tc-(Compound B)] came in with a maximal cell uptake in data set [1] of 12%. For the same compound, in data set [2], the log partition coefficient (log P) – broadly, the decadic logarithm of the partition coefficient of the neutral form, usually between octanol and water – stood at 3.3; the pKa came to 7.7; the “log D(pH 7.4)” value is on record as 1.9.
